Ki data for eight compounds are collected here from BindingDB's records for doi:10.1021/jm020384z (Aventis Pharmaceuticals, 2003).

One may read the Ki as a measure of affinity in units of concentration, obtained from inhibition or displacement. A high value points to weaker binding.

Experiment [1] deals with Coagulation factor X (Homo sapiens, UniProt P00742). Nature of the experiment: In vitro binding affinity for human Coagulation factor X.
The target in experiment [2] is Prothrombin (Homo sapiens, UniProt P00734). Nature of the experiment: Binding affinity towards thrombin.
The target of experiment [3] is Serine protease 1 (Homo sapiens, UniProt P07477). The experiment can be described thus: Binding affinity towards trypsin.
Chain of Serine protease 1 (P07477 whole entry): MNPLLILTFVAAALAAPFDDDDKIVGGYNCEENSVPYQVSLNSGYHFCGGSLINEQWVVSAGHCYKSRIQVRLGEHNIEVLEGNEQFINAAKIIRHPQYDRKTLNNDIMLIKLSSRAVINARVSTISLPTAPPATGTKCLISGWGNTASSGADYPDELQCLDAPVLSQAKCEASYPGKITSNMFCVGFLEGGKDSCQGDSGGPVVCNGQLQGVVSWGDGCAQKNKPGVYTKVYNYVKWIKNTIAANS

Chain of Coagulation factor X (P00742 41-179 limits assumed): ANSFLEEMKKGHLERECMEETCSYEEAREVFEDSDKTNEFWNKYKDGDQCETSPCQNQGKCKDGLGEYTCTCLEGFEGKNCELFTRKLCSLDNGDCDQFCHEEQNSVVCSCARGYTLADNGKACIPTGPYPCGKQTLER
Chain of Coagulation factor X (P00742 235-488 limits assumed): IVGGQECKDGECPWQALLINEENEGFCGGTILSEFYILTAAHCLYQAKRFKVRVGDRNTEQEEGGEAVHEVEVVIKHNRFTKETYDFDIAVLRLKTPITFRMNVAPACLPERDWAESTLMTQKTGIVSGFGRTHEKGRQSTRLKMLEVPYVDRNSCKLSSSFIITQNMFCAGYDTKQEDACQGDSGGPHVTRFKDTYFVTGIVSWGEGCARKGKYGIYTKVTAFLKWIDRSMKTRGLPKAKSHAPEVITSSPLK

For the compound `O=C1CN(S(=O)(=O)c2cc3cccnc3s2)CCN1Cc1cc2cnccc2[nH]1` [1-(1H-Pyrrolo[3,2-c]pyridin-2-ylmethyl)-4-(thieno[2,3-b]pyridine-2-sulfonyl)-piperazin-2-one], the Ki in experiment [1] is above 1200 nM. The compound `O=C1CN(S(=O)(=O)c2cc3ncccc3s2)CCN1Cc1cc2cnccc2[nH]1` [1-(1H-Pyrrolo[3,2-c]pyridin-2-ylmethyl)-4-(thieno[3,2-b]pyridine-2-sulfonyl)-piperazin-2-one] displayed a Ki in experiment [1] above 1200 nM. `O=C1CN(S(=O)(=O)c2cc3ccc(Cl)cc3s2)CCN1Cc1cc2c(=O)[nH]ccc2[nH]1` [2-[4-(6-Chloro-benzo[b]thiophene-2-sulfonyl)-2-oxo-piperazin-1-ylmethyl]-1,5-dihydro-pyrrolo[3,2-c]pyridin-4-one]: the inhibitory constant (Ki) is above 3.9 µM in experiment [2], above 1200 nM in experiment [1] and above 2900 nM in experiment [3]. Regarding `O=C1CN(S(=O)(=O)c2sc3ccccc3c2Cl)CCN1Cc1cc2cnccc2[nH]1` [4-(3-Chloro-benzo[b]thiophene-2-sulfonyl)-1-(1H-pyrrolo[3,2-c]pyridin-2-ylmethyl)-piperazin-2-one], in experiment [1], the Ki is above 1200 nM.

For `O=C1CN(S(=O)(=O)c2ccc(-c3ccc(Cl)cc3)cc2)CCN1Cc1cc2cnccc2[nH]1` [4-(4'-Chloro-biphenyl-4-sulfonyl)-1-(1H-pyrrolo[3,2-c]pyridin-2-ylmethyl)-piperazin-2-one], the inhibition constant Ki in experiment [1] is above 1200 nM.

For `O=C1CN(S(=O)(=O)c2cc3ccc(Cl)cc3s2)CCN1Cc1nc2ccncc2[nH]1` [4-(6-Chloro-benzo[b]thiophene-2-sulfonyl)-1-(1H-imidazo[4,5-c]pyridin-2-ylmethyl)-piperazin-2-one], the inhibition constant (Ki) in experiment [2] is above 3.9 µM; in experiment [1], above 1200 nM; in experiment [3], above 2900 nM. For `O=C1CN(S(=O)(=O)c2cc3ccc(Cl)cc3s2)CCN1Cc1cc2ncccc2[nH]1` [4-(6-Chloro-benzo[b]thiophene-2-sulfonyl)-1-(1H-pyrrolo[3,2-b]pyridin-2-ylmethyl)-piperazin-2-one], in that order: above 3.9 µM, above 1200 nM and above 2900 nM. In experiment [1], `COc1cc(C=CS(=O)(=O)N2CCN(Cc3cc4cnccc4[nH]3)C(=O)C2)sc1Cl` [4-[2-(5-Chloro-4-methoxy-thiophen-2-yl)-ethenesulfonyl]-1-(1H-pyrrolo[3,2-c]pyridin-2-ylmethyl)-piperazin-2-one] displayed an inhibitory constant (Ki) above 1200 nM.
